Results from patent US20240269128A1, “COMPOUNDS FOR TREATING OR PREVENTING ALZHEIMER'S DISEASE” (THE UNITED STATES OF AMERICA, as represented by the …, priority 2021, published 2024).

Tests used:
BV-2 cells = assay: Aβ1-42 clearance Protonex assay; format: cell-based, mouse; conditions: 25 μM HCQ pretreatment, Protonex Green label
Method: Aβ1-42 clearance-Protonex assay: For Abeta (Aβ1-42) clearance Protonex assay, 5000 BV-2 cells per well (uncoated 96 well plates) were plated out. After changing cells to treatment medium, HCQ (25 μM) was applied 1 hour before stimulation with Protonex™ Green 500, SE (21216, AAT Bioquest) labelled Aβ1-42 (Bachem 4061966; final concentration in well: 200 ng/ml (dilutions in medium)). Cells treated with vehicle and cells treated with Aβ1-42 alone served as controls. After 3 h of Aβ1-42 stimulation, cells were imaged on Cytation 5 multimode reader (Biotek) and green fluorescence was measured.

STAT3 [1] = target: T1, STAT3 (Homo sapiens, UniProt P40763); assay: Western blot of p-STAT3 in tau phosphorylation assay; format: cell-based
T1 construct: endogenous in cells; host or cells: HMC3 (ATCC CRL-3304), 1321N1 (Sigma-Aldrich), SK-N-BE(2)-M17 (ATCC CRL-2267)
T1 sequence (P40763 whole entry): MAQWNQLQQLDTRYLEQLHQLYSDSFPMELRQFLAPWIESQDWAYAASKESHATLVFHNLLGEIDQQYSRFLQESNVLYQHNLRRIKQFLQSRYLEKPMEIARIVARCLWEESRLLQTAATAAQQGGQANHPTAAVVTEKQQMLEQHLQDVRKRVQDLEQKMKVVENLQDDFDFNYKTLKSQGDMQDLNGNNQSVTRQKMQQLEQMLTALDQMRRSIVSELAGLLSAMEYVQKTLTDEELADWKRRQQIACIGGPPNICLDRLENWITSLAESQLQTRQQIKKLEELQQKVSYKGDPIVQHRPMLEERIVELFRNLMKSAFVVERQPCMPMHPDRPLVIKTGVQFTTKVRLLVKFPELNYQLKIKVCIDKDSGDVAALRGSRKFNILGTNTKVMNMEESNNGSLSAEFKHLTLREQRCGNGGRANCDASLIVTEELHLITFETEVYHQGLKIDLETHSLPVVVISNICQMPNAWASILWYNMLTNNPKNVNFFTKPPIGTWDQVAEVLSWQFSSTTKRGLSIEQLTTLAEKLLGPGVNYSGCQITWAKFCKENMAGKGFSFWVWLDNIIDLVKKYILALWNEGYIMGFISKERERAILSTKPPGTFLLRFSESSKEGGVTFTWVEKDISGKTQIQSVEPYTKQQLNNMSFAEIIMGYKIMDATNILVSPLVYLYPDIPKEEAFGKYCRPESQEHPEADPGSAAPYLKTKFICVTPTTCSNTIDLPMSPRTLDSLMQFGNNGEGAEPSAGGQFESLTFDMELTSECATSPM
Method: (§1) Western blot analyses: Samples for western blot analyses were prepared from 3 assays which provided evidence of HCQ-associated rescue (i.e., Ab1-42 clearance, tau phosphorylation, and LPS-induced neuroinflammation). Samples were prepared identically as described above in section: Effect of HCQ on AD-related phenotypes in cell culture, and scaled up to 24-well format to allow for adequate sample volume. After HCQ treatment, cells were washed once with PBS and harvested in 50 μl 50 mM HEPES+2% SDS lysis buffer. The extracts were then boiled at 95° C. for 5 mins. Analytic methods were identical to those described above in Example 4.
(§2) Statistical analyses: Statistical analysis was performed using STATA 16.1. Group differences were evaluated using two-sample t-tests (parametric) to calculate differences in p-STAT3 levels between HCQ treated and control samples. We additionally used the Wilcoxon rank-sum test (non-parametric) to confirm that results were robust to distributional assumptions. Significant differences were indicated as p<0.05.

[2] = tested on: Primary hippocampal neurons; assay: Aβ toxicity assay; format: cell-based, mouse; conditions: HCQ 25, 2.5 or 0.25 μM
Method: Aβ toxicity: Primary hippocampal neurons were prepared from E18.5 timed pregnant C57BL/6JRccHsd mice as previously described. Cells were seeded in poly-D-lysine pre-coated 96-well plates at a density of 4×10^4 cells/well and cultivated until DIV10 (Neurobasal, 2% B-27, 0.5 mM glutamine, 25 μM glutamate, 1% Penicillin-Streptomycin). On DIV10 pre-aggregated Aβ1-42 (Bachem 4061966, final concentration 10 μM, 48 h at 4° C.) was added to the cells in the presence or absence of Hydroxychloroquine sulfate (TargetMol, T0951) at 25 μM, 2.5 μM or 0.25 μM concentrations. On DIV16 cells were subject to MTT assay to determine cell viability.

STAT3 [3] = target: T2, STAT3 (Mus musculus, UniProt P42227); assay: Western blot of p-STAT3 in BV-2 phenotypic assays (Aβ1-42 clearance, LPS); format: cell-based; conditions: 25 μM
T2 sequence (P42227 whole entry): as the sequence (P40763 whole entry) above, with E760D counted along it
Method: as §1, §2

[4] = tested on: microglia isolated from 5xFAD mice; assay: LPS-induced neuroinflammation on MACS isolated 5xFAD microglia; format: cell-based, mouse
Method: MACS microglia isolation and cultivation: Adult microglia were isolated from 9 months old 5xFAD mice via magnetic cell sorting (MACS). The mice were terminally anesthetized by i.p. injection of Pentobarbital (600 mg/kg, dosing 10 μL/g body weight) and brains were transcardially perfused with DPBS. Brains were removed, the brainstem discarded and the remaining brain minced for cell dissociation. Cell dissociation was performed using Miltenyi Adult Brain Dissociation Kit (Miltenyi, 130-107-677). MACS cell separation was performed using CD11b (Microglia) MicroBeads, mouse (Miltenyi, 130-093-634) and MS columns on OctoMACS™ cell separator (Miltenyi). Isolated microglia were seeded onto 0.01% PLL coated plates at a density of 10.000 cells per well in 384 well plate in DMEM containing 10% FBS,1% penicillin/streptomycin, and 2 mM L-glutamine.
LPS-induced neuroinflammation on MACS isolated 5xFAD microglia: On DIV7 HCQ at 0.25 μM, 2.5 μM and 25 μM was applied 1 hour before LPS stimulation (Sigma-Aldrich; L6529; 1 mg/ml stock in ddH2O, final concentration in well: 50 ng/ml (dilutions in medium)). Cells treated with vehicle, cells treated with LPS alone, as well as cells treated with LPS plus reference item (dexamethasone 10 μM, Sigma D4902) served as controls. After 24 h of stimulation, cell supernatants were collected for the cytokine measurement (V-PLEX Proinflammatory Panel 1 Mouse Kit, K15048D, Mesoscale).

STAT3 [5] = target: T2, STAT3; assay: Western blot of hippocampal STAT3 and p-STAT3 after STET; parameters: hippocampal homogenate samples across four groups; from tissue; host or cells: acute hippocampal slices from WT and APP/PS1 (APPSwe/PS1dE9) mice
Method: To test if the rescue of impaired late-LTP by HCQ may be through inactivation of STAT3, levels of total STAT3 and phosphorylated STAT3 (p-STAT3; Tyr705) were examined to determine whether they were reduced by HCQ treatment. Specifically, differences in STAT3 and pSTAT3 levels were tested in hippocampal homogenate samples across four groups: WT, APP/PS1, WT+50 μM HCQ, and APP/PS1+50 μM HCQ mice (5-months old). All hippocampal slices were incubated in the interphase chamber and HCQ was applied 30 minutes before and after STET. In each group, hippocampal slices were collected one hour after STET.

[6] = macaques; cited from earlier work
iPSCs = assay: LPS induced neuroinflammation (iPSCs); format: cell-based; conditions: posterior probability of a protective effect
Method: Cell-based assays: For each combination of drugs and assay, the posterior probability P(Hi|data) of protective, neutral, and adverse drug effect (formal hypotheses H1, H0, H2, respectively) were evaluated. Dose-response relationships (x-y data) were modeled with a Bayesian nonlinear regression model:
and Bayesian estimation of the posterior density of the fold change was performed using default settings of the Markov chain Monte Carlo samples implemented by the PyMC python library. For efficient sample, each bioactivity data set was standardized such that […] corresponded to one standard deviation. Diagnostic criteria (posterior sample of fitted curves, effective sample sizes, values of the r statistic, and Markov chain standard errors) were inspected for the fit and three poorly fitted data sets out of a total of 91 data sets were excluded.

Row | p-STAT3 (Tyr705) (STAT3 [1]; 25 μM and 2.5 μM, relative to VC) | p-STAT3 (Ser727) (STAT3 [1]; 25 μM, 2.5 μM and 0.25 μM) | p-STAT3 (Tyr705) (STAT3 [3]; Aβ1-42 clearance assay, relative to VC) | p-STAT3 (Tyr705) (STAT3 [3]; LPS-induced neuroinflammation assay, vs VC) | hippocampal p-STAT3 (Tyr705) (STAT3 [5]; APP/PS1+50 μM HCQ vs untreated APP/PS1) | hippocampal total STAT3 (STAT3 [5]; APP/PS1 vs APP/PS1+50 μM HCQ) | hippocampal total STAT3 and p-STAT3 (Tyr705) (STAT3 [5]; WT vs WT+50 μM HCQ) | SMILES | microglial uptake of Aβ1-42 into acidic cellular compartments (BV-2 cells) | toxicity due to exogenous Aβ [2] | release of IL1-b [4] | release of IL-10 [4] | release of IL-12p70 [4] | release of IL6 ([4]; HCQ 0.25-25 μM) | Kp brain/plasma [6] | effect in LPS induced neuroinflammation (iPSCs) (iPSCs)
1 | lowered | lowered | lowered | significantly lower | significantly lower | no significant difference | similar | CCN(CCO)CCCC(C)Nc1ccnc2cc(Cl)ccc12 (stereo not drawn) [HCQ, hydroxychloroquine] | enhances | no effects | lowered | lowered | lowered | lowered | 21.99±0.11 | –
2 | – | – | – | – | – | – | – | C[C@H](CCC(=O)NCCS(=O)(=O)O)[C@H]1CC[C@H]2[C@@H]3[C@@H](O)C[C@@H]4C[C@H](O)CC[C@]4(C)[C@H]3CC[C@]12C [TUDCA, tauroursodeoxycholic acid] | – | – | – | – | – | – | – | strongly protective
